The source of these data is patent publication US10100331B2, “Reagent for gene-drug therapeutics” (Agency for Science, Technology and Research, priority 2012, dated 2018).

Molecules are shown by their SMILES.

The target of one experiment is HDAC1 (Homo sapiens, UniProt Q13547). As to conditions: Targeted HDAC/Sirtuin: 1; cited from earlier work.
The target of a further experiment is T1, HDAC6 (Homo sapiens, UniProt Q9UBN7).
T1 sequence (Q9UBN7 1-1215): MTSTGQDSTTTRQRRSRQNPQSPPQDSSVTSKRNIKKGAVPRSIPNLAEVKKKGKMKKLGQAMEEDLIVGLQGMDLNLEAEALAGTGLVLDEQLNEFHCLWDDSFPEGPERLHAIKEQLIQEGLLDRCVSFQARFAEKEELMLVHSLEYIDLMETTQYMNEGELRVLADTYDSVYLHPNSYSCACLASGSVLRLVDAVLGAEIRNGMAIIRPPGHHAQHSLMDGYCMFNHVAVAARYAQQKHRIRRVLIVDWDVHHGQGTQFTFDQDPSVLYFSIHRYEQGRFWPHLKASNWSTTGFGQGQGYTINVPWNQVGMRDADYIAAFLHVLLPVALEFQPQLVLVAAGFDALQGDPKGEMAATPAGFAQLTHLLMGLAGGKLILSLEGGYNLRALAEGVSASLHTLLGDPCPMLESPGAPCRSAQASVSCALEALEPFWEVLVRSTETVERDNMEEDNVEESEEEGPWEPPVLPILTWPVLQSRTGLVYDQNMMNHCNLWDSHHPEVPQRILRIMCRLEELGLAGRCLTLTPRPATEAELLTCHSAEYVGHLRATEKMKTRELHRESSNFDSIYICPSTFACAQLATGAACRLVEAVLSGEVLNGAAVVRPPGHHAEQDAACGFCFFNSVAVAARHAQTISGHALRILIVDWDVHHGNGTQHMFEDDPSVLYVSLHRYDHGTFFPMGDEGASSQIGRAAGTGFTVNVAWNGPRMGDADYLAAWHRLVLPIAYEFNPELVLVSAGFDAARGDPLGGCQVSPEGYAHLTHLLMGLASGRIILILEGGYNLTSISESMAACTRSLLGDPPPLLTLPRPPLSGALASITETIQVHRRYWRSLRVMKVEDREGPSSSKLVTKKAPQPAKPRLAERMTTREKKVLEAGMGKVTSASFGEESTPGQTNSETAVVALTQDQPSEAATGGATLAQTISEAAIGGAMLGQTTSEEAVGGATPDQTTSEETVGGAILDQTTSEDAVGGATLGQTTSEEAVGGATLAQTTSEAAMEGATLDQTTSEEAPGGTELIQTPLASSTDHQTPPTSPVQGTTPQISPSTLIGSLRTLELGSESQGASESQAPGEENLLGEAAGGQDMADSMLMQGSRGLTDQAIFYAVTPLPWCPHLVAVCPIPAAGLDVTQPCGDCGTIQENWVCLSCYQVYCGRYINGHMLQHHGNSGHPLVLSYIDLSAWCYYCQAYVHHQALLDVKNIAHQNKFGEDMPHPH
Conditions: Targeted HDAC/Sirtuin: 6; cited from earlier work.

Another experiment deals with KLF4 and c-Myc. The experiment is described as follows: KLF4 and c-Myc expression in HaF (PCR). The experiment is classed as cell-based, human. Conditions: 1 mM VPA, up to 72 h. The method, then: Fibroblast cells were treated with 1 mM VPA for up to 3 days. At the end of incubation, the cells were collected and subjected to PCR analysis. Cells with no exposure to VPA (3 days) serve as control. Graphs present fold change to control after normalization with GAPDH.

A further experiment deals with Neuro2A cells. The experiment in a line: Transfection of Neuro2A cells with PKC inhibitor. Format: cell-based. Conditions: 2 μM, 45 min prior and after transfection; LPEI/pDNA N/P=20; 24 h. The method, then:
Neuro2A cells were treated with GÖ6983 (2 μM) for 45 min prior transfection. Transfection mixture (LPEI/pDNA at N/P=20) was replaced with DMEM containing 0.5% FBS and GÖ6983 (2 μM). Representative images (acquired 24 h post transfection) were shown.

For a further experiment, the target named is HDAC3 (Homo sapiens, UniProt O15379). As to conditions: Targeted HDAC/Sirtuin: 3; cited from earlier work.
In another experiment the target is T2, HDAC8 (Homo sapiens, UniProt Q9BY41).
T2 sequence (Q9BY41 1-377): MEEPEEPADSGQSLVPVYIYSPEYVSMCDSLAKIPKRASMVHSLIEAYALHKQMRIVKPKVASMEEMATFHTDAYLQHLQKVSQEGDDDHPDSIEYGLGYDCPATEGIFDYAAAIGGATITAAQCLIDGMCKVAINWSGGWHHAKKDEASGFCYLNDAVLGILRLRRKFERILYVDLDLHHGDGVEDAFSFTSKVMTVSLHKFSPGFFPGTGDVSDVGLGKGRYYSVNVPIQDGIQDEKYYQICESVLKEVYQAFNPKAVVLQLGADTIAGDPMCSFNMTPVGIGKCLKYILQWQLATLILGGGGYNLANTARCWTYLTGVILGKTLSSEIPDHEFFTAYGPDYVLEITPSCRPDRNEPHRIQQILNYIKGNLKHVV
Conditions: Targeted HDAC/Sirtuin: 8; cited from earlier work.

A further experiment concerns the target HDAC2 (Homo sapiens, UniProt Q92769). As to conditions: Targeted HDAC/Sirtuin: 2; cited from earlier work.

Sequence of HDAC1 (Q13547 whole entry, species assumed): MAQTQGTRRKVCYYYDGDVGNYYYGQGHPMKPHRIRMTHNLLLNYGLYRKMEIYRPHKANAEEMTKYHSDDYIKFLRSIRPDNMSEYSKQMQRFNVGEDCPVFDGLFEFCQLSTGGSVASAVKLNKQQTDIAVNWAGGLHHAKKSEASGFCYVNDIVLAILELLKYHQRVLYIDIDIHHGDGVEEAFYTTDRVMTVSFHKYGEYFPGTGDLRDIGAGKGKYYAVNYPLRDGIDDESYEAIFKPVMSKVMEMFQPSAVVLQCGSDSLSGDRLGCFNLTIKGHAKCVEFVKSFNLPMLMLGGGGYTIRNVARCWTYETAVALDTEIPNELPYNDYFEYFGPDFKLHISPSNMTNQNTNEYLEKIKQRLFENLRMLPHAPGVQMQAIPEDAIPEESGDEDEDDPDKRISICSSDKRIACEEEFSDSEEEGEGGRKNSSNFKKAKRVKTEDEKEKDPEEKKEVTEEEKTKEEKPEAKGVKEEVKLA
Sequence of HDAC3 (O15379 whole entry): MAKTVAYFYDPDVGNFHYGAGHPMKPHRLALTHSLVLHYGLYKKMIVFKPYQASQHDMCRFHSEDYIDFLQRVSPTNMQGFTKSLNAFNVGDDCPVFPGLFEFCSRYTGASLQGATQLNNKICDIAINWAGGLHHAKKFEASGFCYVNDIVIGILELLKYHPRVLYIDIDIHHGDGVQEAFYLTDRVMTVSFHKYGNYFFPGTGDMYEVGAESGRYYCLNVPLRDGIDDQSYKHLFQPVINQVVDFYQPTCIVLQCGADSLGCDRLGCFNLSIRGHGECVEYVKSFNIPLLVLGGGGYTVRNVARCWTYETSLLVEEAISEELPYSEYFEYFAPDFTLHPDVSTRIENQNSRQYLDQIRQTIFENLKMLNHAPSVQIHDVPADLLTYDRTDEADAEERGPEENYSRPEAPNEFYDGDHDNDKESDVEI
Sequence of HDAC3 (Q9Y618 395-489 partner limits assumed): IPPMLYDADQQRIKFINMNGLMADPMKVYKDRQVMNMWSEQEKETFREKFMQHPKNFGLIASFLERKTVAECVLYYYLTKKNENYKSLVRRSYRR
Sequence of HDAC2 (Q92769 whole entry): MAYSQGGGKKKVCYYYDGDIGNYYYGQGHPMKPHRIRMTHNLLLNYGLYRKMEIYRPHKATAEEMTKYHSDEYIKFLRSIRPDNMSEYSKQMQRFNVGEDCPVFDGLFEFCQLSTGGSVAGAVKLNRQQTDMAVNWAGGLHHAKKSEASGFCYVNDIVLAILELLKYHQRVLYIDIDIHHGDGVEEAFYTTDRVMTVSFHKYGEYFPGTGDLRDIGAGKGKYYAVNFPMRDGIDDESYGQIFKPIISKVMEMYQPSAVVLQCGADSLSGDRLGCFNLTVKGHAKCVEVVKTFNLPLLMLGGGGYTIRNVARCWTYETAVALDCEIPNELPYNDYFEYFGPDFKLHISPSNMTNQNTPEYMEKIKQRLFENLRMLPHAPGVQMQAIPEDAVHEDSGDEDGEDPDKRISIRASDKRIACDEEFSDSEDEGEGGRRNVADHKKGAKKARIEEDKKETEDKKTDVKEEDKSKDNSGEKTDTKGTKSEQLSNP

The IC50 is the concentration needed to halve the response being measured. In the case of `CCCC(CCC)C(=O)O` [Valproic Acid], the IC50 was 442 µM at HDAC1 and 11800 µM at HDAC6. Also, in the experiment with KLF4 and c-Myc, the “expressions of cMyc and KLF4” value is “Gradual increment”.
In the case of `COc1ccc2c(c1)c(C1=C(c3c[nH]c4ccccc34)C(=O)NC1=O)cn2CCCN(C)C` [GÖ6983], the transfection result in the experiment with Neuro2A cells is listed as “substantially reduced transfection”.
Regarding `CCCCOc1ccc(CC(=O)NO)cc1` [Bufexamac], the half-inhibitory concentration (IC50) was 341 µM on HDAC3, 10.7 µM at HDAC6 and 235 µM at HDAC8.
In the case of `Nc1ccccc1NC(=O)CCCCCCC(=O)Nc1ccccc1` [BML-210], the IC50 on HDAC1 was 15 µM; on HDAC3 it was 2.62 µM; at HDAC2 it was 10.9 µM.
